Laboratory results from ChEMBL document CHEMBL3994575, “Helixconstraints and amino acid substitution in GLP-1 increase cAMP and insulin secretion but not beta-arrestin 2 signaling” (Eur J Med Chem, 2017).
Positions of bridges follow the written chain, without caps; N, C: chain ends. Residues, ends and D or L forms follow the SMILES beside them.

Key:
[1] = molecular target: T1, Glucagon-like peptide 1 receptor (Homo sapiens, UniProt P43220); assay: Agonist activity at human GLP1R expressed in CHOK1 cells assessed as induction of beta-galactosidase-tagged beta-arrestin2 recruitment incubated for 90 mins by PathHunter enzyme complementation assay; format: cell-based
[2] = molecular target: T1, Glucagon-like peptide 1 receptor; assay: Agonist activity at human GLP1R expressed in CHO cells assessed as cAMP accumulation incubated for 30 mins by LANCE assay; format: functional, cell-based
[3] = molecular target: T1, Glucagon-like peptide 1 receptor; assay: Displacement of [125I]-GLP (7 to 36 residues) from human GLP1R expressed in CHO cell membranes incubated for 30 mins measured after 10 hrs by scintillation proximity assay

T1 sequence (P43220 whole entry): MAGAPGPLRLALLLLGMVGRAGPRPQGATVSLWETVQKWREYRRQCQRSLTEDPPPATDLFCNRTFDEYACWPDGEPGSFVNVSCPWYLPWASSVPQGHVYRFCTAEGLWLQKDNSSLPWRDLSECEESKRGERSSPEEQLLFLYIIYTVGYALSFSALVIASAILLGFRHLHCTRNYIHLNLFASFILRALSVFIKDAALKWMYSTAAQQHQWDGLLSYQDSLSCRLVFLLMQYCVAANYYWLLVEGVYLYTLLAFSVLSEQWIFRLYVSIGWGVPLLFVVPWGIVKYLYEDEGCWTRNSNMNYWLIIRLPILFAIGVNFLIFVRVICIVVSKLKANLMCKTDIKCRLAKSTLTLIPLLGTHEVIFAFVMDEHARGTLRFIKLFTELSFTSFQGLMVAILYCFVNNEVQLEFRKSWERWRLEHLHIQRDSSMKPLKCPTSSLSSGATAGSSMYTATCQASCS

Row | EC50 [1] [nM] | EC50 [2] [nM] | Ki [3] [nM] | Compound
1 | 33 | 0.35 | 18 | CC[C@H](C)[C@H](NC(=O)[C@H](Cc1ccccc1)NC(=O)[C@H](CCC(=O)O)NC(=O)[C@H](CCCCN)NC(=O)[C@H](C)NC(=O)[C@H](C)NC(=O)[C@H](CCC(N)=O)NC(=O)[C@@H]1CCCN1C(=O)[C@H](CCC(=O)O)NC(=O)[C@H](CC(C)C)NC(=O)[C@H](Cc1ccc(O)cc1)NC(=O)[C@H](CO)NC(=O)[C@H](CO)NC(=O)[C@@H](NC(=O)[C@H](CC(=O)O)NC(=O)[C@H](CO)NC(=O)[C@@H](NC(=O)[C@H](Cc1ccccc1)NC(=O)[C@@H](NC(=O)CNC(=O)[C@H](CCC(=O)O)NC(=O)[C@H](C)NC(=O)[C@@H](N)Cc1cnc[nH]1)[C@@H](C)O)[C@@H](C)O)C(C)C)C(=O)N[C@H]1CCCCNC(=O)C[C@@H](C(=O)NCC(=O)N[C@@H](CCCNC(=N)N)C(=O)NCC(N)=O)NC(=O)[C@H](C(C)C)NC(=O)[C@H](CC(C)C)NC(=O)[C@H](Cc2c[nH]c3ccccc23)NC1=O (H-HAEGTFTSDVSSYLEPQAAKEFIKWLVDGRG-NH2; lactam 24-28)
2 | 12 | 0.021 | 1.4 | CC[C@H](C)[C@H](NC(=O)[C@H](Cc1ccccc1)NC(=O)[C@H](CCC(=O)O)NC(=O)[C@H](CCCCN)NC(=O)[C@H](C)NC(=O)[C@H](C)NC(=O)[C@H](CCC(N)=O)NC(=O)CNC(=O)[C@H](CCC(=O)O)NC(=O)[C@@H]1CC(=O)NCCCC[C@H](NC(=O)[C@H](CC(=O)O)NC(=O)[C@H](CO)NC(=O)[C@@H](NC(=O)[C@H](Cc2ccccc2)NC(=O)[C@@H](NC(=O)CNC(=O)[C@H](CCC(=O)O)NC(=O)[C@H](C)NC(=O)[C@@H](N)Cc2cnc[nH]2)[C@@H](C)O)[C@@H](C)O)C(=O)N[C@@H](CO)C(=O)N[C@@H](CO)C(=O)N[C@@H](Cc2ccc(O)cc2)C(=O)N1)C(=O)N[C@H]1CCCCNC(=O)C[C@@H](C(=O)NCC(=O)N[C@@H](CCCNC(=N)N)C(=O)NCC(N)=O)NC(=O)[C@H](C(C)C)NC(=O)[C@H](CC(C)C)NC(=O)[C@H](Cc2c[nH]c3ccccc23)NC1=O (H-HAEGTFTSDKSSYDEGQAAKEFIKWLVDGRG-NH2; lactam 10-14, 24-28)
3 | > 10000 | 300 | – | CC[C@H](C)[C@H](NC(=O)[C@H](Cc1ccccc1)NC(=O)[C@H](CCC(=O)O)NC(=O)[C@H](CCCCN)NC(=O)[C@H](C)NC(=O)[C@H](C)NC(=O)[C@H](CCC(N)=O)NC(=O)CNC(=O)[C@H](CCC(=O)O)NC(=O)[C@H](CC(C)C)NC(=O)[C@H](Cc1ccc(O)cc1)NC(=O)[C@H](CO)NC(=O)[C@H](CO)NC(=O)[C@@H](NC(=O)[C@H](CC(=O)O)NC(=O)[C@H](CO)NC(=O)[C@@H](NC(=O)[C@H](Cc1ccccc1)NC(=O)[C@@H](NC(=O)CNC(=O)[C@@H]1CSCC(=O)N[C@@H](Cc2cnc[nH]2)C(=O)N[C@@H](C)C(=O)N1)[C@@H](C)O)[C@@H](C)O)C(C)C)C(=O)N[C@@H](C)C(=O)N[C@@H](Cc1c[nH]c2ccccc12)C(=O)N[C@@H](CC(C)C)C(=O)N[C@H](C(=O)N[C@@H](CCCCN)C(=O)NCC(=O)N[C@@H](CCCNC(=N)N)C(=O)NCC(N)=O)C(C)C
4 | 9 | 0.1 | 1.5 | CC[C@H](C)[C@H](NC(=O)[C@H](Cc1ccccc1)NC(=O)[C@H](CCC(=O)O)NC(=O)[C@H](CCCCN)NC(=O)[C@H](C)NC(=O)[C@H](C)NC(=O)[C@H](CCC(N)=O)NC(=O)[C@@H](NC(=O)[C@H](CCC(=O)O)NC(=O)[C@H](CC(C)C)NC(=O)[C@H](Cc1ccc(O)cc1)NC(=O)[C@H](CO)NC(=O)[C@H](CO)NC(=O)[C@@H](NC(=O)[C@H](CC(=O)O)NC(=O)[C@H](CO)NC(=O)[C@@H](NC(=O)[C@H](Cc1ccccc1)NC(=O)[C@@H](NC(=O)CNC(=O)[C@H](CCC(=O)O)NC(=O)[C@H](C)NC(=O)[C@@H](N)Cc1cnc[nH]1)[C@@H](C)O)[C@@H](C)O)C(C)C)C(C)C)C(=O)N[C@H]1CCCCNC(=O)C[C@@H](C(=O)NCC(=O)N[C@@H](CCCNC(=N)N)C(=O)NCC(N)=O)NC(=O)[C@H](C(C)C)NC(=O)[C@H](CC(C)C)NC(=O)[C@H](Cc2c[nH]c3ccccc23)NC1=O (H-HAEGTFTSDVSSYLEVQAAKEFIKWLVDGRG-NH2; lactam 24-28)
5 | 11 | 0.02 | 1.7 | CC[C@H](C)[C@H](NC(=O)[C@H](Cc1ccccc1)NC(=O)[C@H](CCC(=O)O)NC(=O)[C@H](CCCCN)NC(=O)[C@H](C)NC(=O)[C@H](C)NC(=O)[C@H](CCC(N)=O)NC(=O)[C@H](C)NC(=O)[C@H](CCC(=O)O)NC(=O)[C@H](CC(C)C)NC(=O)[C@H](Cc1ccc(O)cc1)NC(=O)[C@H](CO)NC(=O)[C@H](CO)NC(=O)[C@@H](NC(=O)[C@H](CC(=O)O)NC(=O)[C@H](CO)NC(=O)[C@@H](NC(=O)[C@H](Cc1ccccc1)NC(=O)[C@@H](NC(=O)CNC(=O)[C@H](CCC(=O)O)NC(=O)[C@H](C)NC(=O)[C@@H](N)Cc1cnc[nH]1)[C@@H](C)O)[C@@H](C)O)C(C)C)C(=O)N[C@H]1CCCCNC(=O)C[C@@H](C(=O)NCC(=O)N[C@@H](CCCNC(=N)N)C(=O)NCC(N)=O)NC(=O)[C@H](C(C)C)NC(=O)[C@H](CC(C)C)NC(=O)[C@H](Cc2c[nH]c3ccccc23)NC1=O (H-HAEGTFTSDVSSYLEAQAAKEFIKWLVDGRG-NH2; lactam 24-28)
6 | – | 0.05 | – | CC[C@H](C)[C@H](NC(=O)[C@H](Cc1ccccc1)NC(=O)[C@H](CCC(=O)O)NC(=O)[C@H](CCCCN)NC(=O)[C@H](C)NC(=O)[C@H](C)NC(=O)[C@H](CCC(N)=O)NC(=O)[C@@H]1CCC(=O)NCCCC[C@H](NC(=O)[C@H](CO)NC(=O)[C@@H](NC(=O)[C@H](CC(=O)O)NC(=O)[C@H](CO)NC(=O)[C@@H](NC(=O)[C@H](Cc2ccccc2)NC(=O)[C@@H](NC(=O)CNC(=O)[C@H](CCC(=O)O)NC(=O)[C@H](C)NC(=O)[C@@H](N)Cc2cnc[nH]2)[C@@H](C)O)[C@@H](C)O)C(C)C)C(=O)N[C@@H](Cc2ccc(O)cc2)C(=O)N[C@@H](CC(C)C)C(=O)N[C@@H](CCC(=O)O)C(=O)N1)C(=O)N[C@H]1CCCCNC(=O)C[C@@H](C(=O)NCC(=O)N[C@@H](CCCNC(=N)N)C(=O)NCC(N)=O)NC(=O)[C@H](C(C)C)NC(=O)[C@H](CC(C)C)NC(=O)[C@H](Cc2c[nH]c3ccccc23)NC1=O (H-HAEGTFTSDVSKYLEEQAAKEFIKWLVDGRG-NH2; lactam 12-16, 24-28)
7 | 6.7 | 0.013 | 0.94 | CC[C@H](C)[C@H](NC(=O)[C@H](Cc1ccccc1)NC(=O)[C@H](CCC(=O)O)NC(=O)[C@H](CCCCN)NC(=O)[C@H](C)NC(=O)[C@H](C)NC(=O)[C@H](CCC(N)=O)NC(=O)[C@@H]1CC(=O)NCCCC[C@H](NC(=O)[C@H](CO)NC(=O)[C@@H](NC(=O)[C@H](CC(=O)O)NC(=O)[C@H](CO)NC(=O)[C@@H](NC(=O)[C@H](Cc2ccccc2)NC(=O)[C@@H](NC(=O)CNC(=O)[C@H](CCC(=O)O)NC(=O)[C@H](C)NC(=O)[C@@H](N)Cc2cnc[nH]2)[C@@H](C)O)[C@@H](C)O)C(C)C)C(=O)N[C@@H](Cc2ccc(O)cc2)C(=O)N[C@@H](CC(C)C)C(=O)N[C@@H](CCC(=O)O)C(=O)N1)C(=O)N[C@H]1CCCCNC(=O)C[C@@H](C(=O)NCC(=O)N[C@@H](CCCNC(=N)N)C(=O)NCC(N)=O)NC(=O)[C@H](C(C)C)NC(=O)[C@H](CC(C)C)NC(=O)[C@H](Cc2c[nH]c3ccccc23)NC1=O (H-HAEGTFTSDVSKYLEDQAAKEFIKWLVDGRG-NH2; lactam 12-16, 24-28)
